Reference: patent publication US12358895B2, “Process for manufacture of (S)-N-(3-((2-((4-((1-acetylpyrrolidin-3-yl)(methyl)amino)phenyl)amino)-5-methoxypyrimidin-4-yl)oxy)phenyl)acrylamide, and formulations thereof” (ACEA Therapeutics, Inc., priority 2018, dated 2025)

Tests used:
Format in all cases: physicochemical
[1] = Storage stability of encapsulated Compound A-TA in HDPE bottle with deoxidizer; conditions: opaque HDPE bottle, LDPE cap, deoxidizer (PharmaKeep CD20)
[2] = Chemical and polymorphic stability of solid forms
Aqueous solubility = assay: Aqueous solubility
Text: Therefore, the L-(+)-tartrate salt of Compound A, referred to hereinafter as Compound A L-(+)-tartrate, or Compound A-TA, is especially suited for development and is used in many of the compositions and methods herein.
(§1) The drug substance freebase is a weakly basic compound with a pKa of approximately 5.3. The aqueous solubility of the freebase is pH dependent. […] To enhance the absorption and bioavailability, a tartrate salt (Compound A-TA) was made to enhance the dissolution of the molecule in compositions intended for oral administration.

[3] = pKa of the drug substance freebase
Text: as §1

| storage stability at 40° C. and 75% relative humidity ([1]; up to 6 months) | storage stability at 25° C. and 60% relative humidity ([1]; up to 24 months) | chemical and polymorphic stability [2] | water solubility (Aqueous solubility) | aqueous solubility at higher pH (Aqueous solubility) | aqueous solubility at higher pH (Aqueous solubility; listed as freebase) | aqueous solubility at lower pH (Aqueous solubility; lower pH) | pKa [3] | SMILES |
| --- | --- | --- | --- | --- | --- | --- | --- | --- |
| highly stable | highly stable | high chemical and polymorphic stability | – | – | – | – | – | C=CC(=O)Nc1cccc(Oc2nc(Nc3ccc(N(C)[C@H]4CCN(C(C)=O)C4)cc3)ncc2OC)c1.O=C(O)C(O)C(O)C(=O)O [Compound A-TA, (S)—N-(3-((2-((4-((1-acetylpyrrolidin-3-yl)(methyl)amino)phenyl)amino)-5-methoxypyrimidin-4-yl)oxy)phenyl)acrylamide L-(+)-tartrate dihydrate] |
| – | – | – | low water solubility | nearly insoluble | almost insoluble | increases dramatically | ~5.3 | C=CC(=O)Nc1cccc(Oc2nc(Nc3ccc(N(C)[C@H]4CCN(C(C)=O)C4)cc3)ncc2OC)c1 [Compound A, (S)—N-(3-(2-(4-((1-acetylpyrrolidin-3-yl)(methyl)amino)phenylamino)-5-methoxypyrimidin-4-yloxy)phenyl)acrylamide] |
